Assay [1] is described as follows: β-carotene bleaching test (protection from lipid peroxidation). As to the method: (§1) The β-carotene bleaching test was performed to investigate the ability of the extract to protect from lipid peroxidation. All test protocols were previously reported. Briefly, in the DPPH test, a solution of DPPH was mixed with extract at different concentrations (10-1000 μg/mL). After that, the mixture was incubated at room temperature for 30 min. The absorbance was read at 517 nm. In the ABTS test, a solution of ABTS radical cation was prepared and, after 12 h, was diluted with ethanol to reach an absorbance of 0.70 at 734 nm. The stabilized ABTS^+ solution was added to extracts at different concentrations (1-400 μg/mL), and the mixture was left to react at room temperature for 6 min. After that, the absorbance was read at 734 nm. Ascorbic acid was employed as a positive control in both the ABTS and DPPH assays. In the FRAP test, a mixture of tripyridyltriazine (TPTZ) solution, FeCl3, and acetate buffer was added to the sample at a concentration of 2.5 mg/mL. After 30 min of incubation at room temperature, the absorbance was measured at 595 nm. Butylated hydroxytoluene (BHT) was used as a positive control. The protection from lipid peroxidation was studied by using the β-carotene bleaching test. […] The mixture was left to react for 30 and 60 min at 45 °C, and the absorbance was read at 470 nm. Propyl gallate was used as a positive control.

A short description of assay [2]: ABTS radical scavenging test. Conditions: 6 min, room temperature. The method, then: as §1
A short description of assay [3]: DPPH radical scavenging test. The conditions noted are these: 30 min, room temperature. The method, then:
as §1
A general note: The DPPH test is a chemical assay of radical scavenging.

A short description of assay [4]: Ferric Reducing Ability Power (FRAP) test. The conditions noted are these: at 2.5 mg/mL. As to the method: as §1

For `CCCOC(=O)c1cc(O)c(O)c(O)c1` [Propyl gallate, propyl gallate], the “β-Carotene Bleaching Test IC50” value in assay [1] (30 min) came out at 1.04 ± 0.04 µg/mL; in assay [1] (60 min), 0.09 ± 0.00 µg/mL.

Turning to `O=C1O[C@H]([C@@H](O)CO)C(O)=C1O` [Ascorbic acid, ascorbic acid], in assay [2], the “ABTS Test IC50” value came out at 1.7 ± 0.06 µg/mL. In assay [3], the “DPPH Test IC50” value amounted to 5.0 ± 0.8 µg/mL.

With `Cc1cc(C(C)(C)C)c(O)c(C(C)(C)C)c1` [BHT, butylated hydroxytoluene], the “FRAP Test” value in assay [4] was 63.27 ± 4.35 μM Fe(II)/g.

The record behind these values is paper PMC11173687, “Chemical Profile and Healthy Properties of Sicilian Diplotaxis harra subsp. crassifolia (Raf.) Maire” (Molecules, 2024).
